This assay concerns kmt2d CRISPR mosaic mutants (F0). The experiment in a line: Jaw defects in kmt2d-CRISPR F0 mutants. Format: in vivo, zebrafish. As to conditions: kmt2d-CRISPR F0, 100 nM, 5 dpf; listed as dmDf. The text has this:
Prior and current genetic zebrafish models of KS focused on the newly discovered rap1a/rap1b genes. However, from the perspective of clinical utility, dmDf should be efficacious in kmt2d mutants, since loss of function mutations of the human ortholog account for as much as 75% of KS (see, Ng, S. B. et al. Nat Genet 42, 790-3 (2010); Li, Y. et al. Hum Genet 130, 715-24 (2011); Lu, J., Mo, G., Ling, Y. & Ji, L. Mol Med Rep 14, 3641-5 (2016); Miyake, N. et al. Am J Med Genet A 161a, 2234-43 (2013)). Therefore, experiments supplemented the testing tools by creating a kmt2d CRISPR/Cas9 mutant. A guide RNA targeting exon 4 of kmt2d induced efficient (˜99%) Cas9-mediated genome editing (FIG. 8). […]
For convergence and extension (CE) phenotyping, embryos were scored as described (see, Leitch, C. C. et al. Nat Genet 40, 443-8 (2008)) at the 8-10 somite stage, and images were captured using an AZ100 microscope and NIS Elements software (Nikon). […] The distance between Meckel's (MK) and ceratohyal (CH) cartilages was measured on ventral bright field images with Image J (NIH). […] Fluorescence signal on embryo heads was imaged with the Nikon AZ100 microscope and DS-Qi1MC digital camera using […] Z-stacks to generate extended depth of focus images. Cell numbers were quantified using the ImageJ ICTN plugin (NIH). […]

The values that follow come from US20210196714A1, “COMPOSITIONS AND METHODS FOR TREATING DISORDERS CHARACTERIZED WITH ABERRANT RAS/MAPK SIGNALING” (Duke University, priority 2018, published 2021).

“Also recorded” adds a separate entry of the source.

For `CC(C)c1nc(-c2cccc(NS(=O)(=O)c3c(F)cccc3F)c2F)c(-c2ccnc(N)n2)s1` [Compound 8, desmethyl-Dabrafenib], the “jaw defects (MK-CH distance)” value is recorded as “ameliorates the jaw defects; also recorded: ameliorated significantly”.
